Target: P2X7 receptor (Homo sapiens (Human), UniProt Q99572)
Test: P2X7 FLIPR assay (BzATP-stimulated calcium fluorescence, antagonist IC50)
Assay type: cell-based
Summary of the method: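 Cells expressing P2X7 receptor (human, rat or mouse), plated 24 hours earlier in low-serum medium, loaded with Fluo-4 NW dye (30 min 37° C, 30 min room temperature).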

P2X7 receptor, sequence (Q99572 whole entry): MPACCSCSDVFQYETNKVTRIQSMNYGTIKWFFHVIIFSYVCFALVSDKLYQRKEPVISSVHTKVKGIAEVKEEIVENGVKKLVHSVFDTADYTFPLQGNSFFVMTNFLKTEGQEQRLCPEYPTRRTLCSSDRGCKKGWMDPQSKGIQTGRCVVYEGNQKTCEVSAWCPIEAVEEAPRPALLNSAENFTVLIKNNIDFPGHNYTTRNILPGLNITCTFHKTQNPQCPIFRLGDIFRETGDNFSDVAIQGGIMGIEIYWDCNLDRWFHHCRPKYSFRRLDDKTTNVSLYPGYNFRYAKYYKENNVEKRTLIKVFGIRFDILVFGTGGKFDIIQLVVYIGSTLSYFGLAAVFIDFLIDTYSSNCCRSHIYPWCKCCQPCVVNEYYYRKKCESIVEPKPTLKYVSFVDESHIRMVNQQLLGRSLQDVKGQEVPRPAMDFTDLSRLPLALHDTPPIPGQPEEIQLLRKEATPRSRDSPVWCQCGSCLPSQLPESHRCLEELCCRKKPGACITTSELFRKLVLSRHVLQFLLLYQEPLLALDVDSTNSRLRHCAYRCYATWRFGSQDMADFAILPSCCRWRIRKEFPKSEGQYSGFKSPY

Row | SMILES | IC50
1 | O=C(NCC(CC1CC1)c1cnc(C(F)(F)F)nc1)c1ccccc1Cl (stereo not shown) [2-chloro-N-(3-cyclopropyl-2-(2-(trifluoromethyl)pyrimidin-5-] [2-chloro-N-(3-cyclopropyl-2-(2-(trifluoromethyl)pyrimidin-5-yl)propyl)benzamide] | 13 nM
2 | Cc1ccc(Cl)c(C(=O)NCC2(c3cccnc3)CCCC2)c1 [2-Chloro-5-methyl-N-(1-pyridin-3-yl-cyclopentylmethyl)-benzamide] | 2900 nM
3 | O=C(NCC(c1ccccc1)c1ccnnc1)c1ccc(Cl)cc1Cl (stereo not shown) [2,4-dichloro-N-(2-phenyl-2-pyridazin-4-yl-ethyl)benzamide] | 720 nM
4 | CC(CNC(=O)c1cccc(F)c1Cl)(CC1CC1)c1cnc(C(F)(F)F)nc1 (stereo not shown) [2-chloro-N-[3-cyclopropyl-2-methyl-2-[2-(trifluoromethyl)pyr] [2-chloro-N-[3-cyclopropyl-2-methyl-2-[2-(trifluoromethyl)pyrimidin-5-yl]propyl]-3-fluoro-benzamide] | 16 nM
5 | Cc1ncc(C(CNC(=O)c2ccccc2Cl)CC2(C(F)(F)F)CC2)cn1 (single isomer, unassigned; (-)) [(−)2-chloro-N-[2-(2-methylpyrimidin-5-yl)-3-[1-(trifluoromet] [(−)2-chloro-N-[2-(2-methylpyrimidin-5-yl)-3-[1-(trifluoromethyl)cyclopropyl]propyl]benzamide] | 650 nM
6 | O=C(NCC(c1ccc(F)cc1)c1cnc(C(F)(F)F)nc1)c1ccccc1Cl (single isomer, unassigned; (+)) [(+)2-chloro-N-[2-(4-fluorophenyl)-2-[2-(trifluoromethyl)pyri] [(+)2-chloro-N-[2-(4-fluorophenyl)-2-[2-(trifluoromethyl)pyrimidin-5-yl]ethyl]benzamide] | 4.4 nM
7 | O=C(NCC(CC1(C(F)(F)F)CC1)c1ccc(C(F)(F)F)nc1)c1cccc(Cl)c1Cl (stereo not shown) [2,3-dichloro-N-[3-[1-(trifluoromethyl)cyclopropyl]-2-[6-(tri] [2,3-dichloro-N-[3-[1-(trifluoromethyl)cyclopropyl]-2-[6-(trifluoromethyl)-3-pyridyl]propyl]benzamide] | 19 nM
8 | O=C(NCC(c1ccc(Cl)cc1)C1CCOCC1)c1cccc(F)c1Cl (stereo not shown) [2-chloro-N-[2-(4-chlorophenyl)-2-tetrahydropyran-4-yl-ethyl]-3-fluoro-benzamide] | 15 nM
9 | O=C(NCC(c1ccc(F)cc1)c1cnc(C(F)(F)F)nc1)c1cccc(F)c1Cl (single isomer, unassigned; (-)) [(−)2-chloro-3-fluoro-N-[2-(4-fluorophenyl)-2-[2-(trifluorome] [(−)2-chloro-3-fluoro-N-[2-(4-fluorophenyl)-2-[2-(trifluoromethyl)pyrimidin-5-yl]ethyl]benzamide] | 1.8 nM
10 | O=C(NCC1(c2ccc(C(F)(F)F)nc2)CCOCC1)c1cccc(Cl)c1Cl [2,3-dichloro-N-((4-(6-(trifluoromethyl)pyridin-3-yl)tetrahydro-2H-pyran-4-yl)methyl)benzamide] | 52 nM
11 | COc1cccc(C(=O)NCC(CC2CC2)c2cnc(C(F)(F)F)nc2)c1Cl (single isomer, unassigned; (+)) [(+)2-chloro-N-[3-cyclopropyl-2-[2-(trifluoromethyl)pyrimidin] [(+)2-chloro-N-[3-cyclopropyl-2-[2-(trifluoromethyl)pyrimidin-5-yl]propyl]-3-methoxy-benzamide] | 14 nM
12 | O=C(NCC(CC1CC1)c1cnc(C(F)(F)F)nc1)c1c(Cl)cccc1Cl (single isomer, unassigned; (-)) [(−)2,6-dichloro-N-[3-cyclopropyl-2-[2-(trifluoromethyl)pyrim] [(−)2,6-dichloro-N-[3-cyclopropyl-2-[2-(trifluoromethyl)pyrimidin-5-yl]propyl]benzamide] | 0.82 nM
13 | Cc1ncc(C(CNC(=O)c2ccccc2Cl)C2CCC(F)(F)CC2)cn1 (stereo not shown) [2-chloro-N-[2-(4,4-difluorocyclohexyl)-2-(2-methylpyrimidin-5-yl)ethyl]benzamide] | 90 nM

Source: patent US9102591B2, “Benzamides” (H. Lundbeck A/S, priority 2012, dated 2015)
